Measurements published in patent US20110098177A1, “METHODS AND COMPOSITIONS OF PLANT MICRONUTRIENTS” (NOVUS INTERNATIONAL INC., priority 2006, published 2011).
“Also recorded” adds a separate entry of the source.

Columns and labels:
Assay type in all cases: in vivo
[1] = system: Tygress tomato plants; assay: Foliar nutrient concentration 2 weeks after treatment, greenhouse tomato (Examples 4-6); conditions: Mn 2.0 lb/acre
Description: (§1) The following experiments were performed in a green house during the fall of 2008 and spring of 2009 at GCREC, Balm, University of Florida. Crop set-up, procedures and variables were as follows.
(§2) Transplants of Tygress' tomato plants were planted in 2-gallon pots filled with commercial planting medium with nutrient concentration of Fe, Zn, Mn, Cu being negligible and insufficient for crop growth. Irrigation and non-micronutrient fertilizer were provided daily through microsprinklers at recommended rates for tomato production in Florida. No pesticides were used. Treatments were as described in Tables 4, 5 and 6 below.
(§3) Treatments were applied at 5 WAT (weeks after transplanting) using a water volume of 200 mL/plant. A non-ionic surfactant was added. Foliar tissue analysis was performed at 3 and 7 WAT on the non-applied newest leaves. The concentrations of N, P, K, Mg, Ca, B, Zn, Mn, Fe, and Cu in the foliar tissue were determined from foliar analysis by a commercial laboratory at 2 weeks before treatment and again at 2 weeks after treatment.
(§4) Deionized water was used for foliar applications, and other nutrients were applied as appropriate under non-limiting conditions. Marketable fruit were collected three times during the growing season, starting at 10 WAT (5 weeks after the initial treatment). Tomato fruit was graded as extra-large, large and medium. Non-marketable fruit were harvested and number and weight recorded but not sized.
(§5) Experimental design was a randomized complete block design with 6 replications. Data were analyzed using a general linear model, and means were separated using an LSD test at the 5% significance level.

[2] = system: Tygress tomato plants; assay: Marketable yield, open-field tomato (Examples 7-10); conditions: open field; lb/acre/season: BIOX-Z 1.3, Cu 6.7, M 23.0, Fe 3.2, INC 4.0, INZ 0.6, CM 10.0, GZ 1.0, GF 4.0, EDZ 1.4, EDM 23.0
Description: (§6) The following experiments were performed in open-field plots during the spring of 2008 at GCREC, Balm, University of Florida. Four products delivering Zn (BIOX-Z), Mn (BIOX-M), Cu (BIOX-Cu), and Fe (BIOX-Fe) were compared to other micronutrient supplement formulations in tomato and bell pepper plants.
(§7) The plot sizes for the tomato plants were 30-ft plots (15 plants per plot) and 15-ft plots were used for the bell pepper plants (30 plants per plot). Crop set-up, procedures and variables were as follows.
(§8) Transplants of ‘Tygress’ tomato plants and ‘Patriot’ bell pepper plants in the 4-true leaf stage (about 6 inches tall) were planted in raised beds in open-field plots. The cross-section of each raised bed was 28 inches wide at the top, 32 inches wide at the base, and 8 inches tall. Irrigation and non-micronutrient fertilizer were provided daily through two drip lines per bed (0.45 gal/100 ft bed/min) at recommended rates for tomato and bell pepper production in Florida. […] The height of the plants for each of the treatment groups was measured at 3 weeks after transplantation (WAT), just prior to treatment with the experimental foliar fertilizers.
(§9) All foliar fertilizers except BIOX-CM were applied to the various treatment groups at 3 weeks after transplantation (WAT) and again at 5 WAT. The BIOX-CM treatment was applied at 4 and 5 WAT. The working water volume was 60 gal/acre and a non-ionic surfactant (Ad-Spray 80) was added in the amount of 2 pints/100 gal water. All plots were sprayed with sprayers pressurized at 25 psi and the canopies of both crops were covered with the micronutrient solutions. Treated plots were isolated during foliar fertilizer application to avoid the cross-contamination of other treatments on adjoining plots.
(§10) Leaf samples were collected from the most recent mature leaves from each plant at 6 WAT (2 weeks after initial treatment). Foliar tissue analysis was performed by a commercial laboratory to determine the concentration of N, P, K, Mg, Ca, B, Zn, Mn, Fe, and Cu. Tomato marketable fruit weights were collected at 10 and 12 WAT, and the fruits were graded according to USDA standards. Pepper marketable fruit weights were determined beginning at 5 WAT over 5 weekly harvests. Fruit mineral analysis (N, P, K, Mg, Ca, B, Zn, Mn, Fe, and Cu) was performed on samples from the tomato harvest.
(§11) The experimental design was a randomized complete block design with 5 replications for each treatment. All comparison data were analyzed using a general linear model and the means of each treatment were separated with a Fisher's protected LSD test at the 5% significance level.

[3] = system: Tygress tomato plants; assay: Foliar nutrient concentration at 6 WAT, open-field tomato (Examples 7-10); conditions: 6 WAT, open field
Description: as §6, §7, §8, §9, §10, §11

[4] = system: Tygress tomato plants; assay: Nutrient concentration of tomato fruits at 10 WAT, open field (Examples 7-10); conditions: 10 WAT, open field
Description: as §6, §7, §8, §9, §10, §11

[5] = system: Patriot bell pepper plants; assay: Marketable yield, open-field bell pepper (Examples 7-10); conditions: open field; lb/acre/season: BIOX-Z 1.3, Cu 6.7, M 23.0, Fe 3.2, INC 4.0, INZ 0.6, CM 10.0, GZ 1.0, GF 4.0, EDZ 1.4, EDM 23.0
Description: as §6, §7, §8, §9, §10, §11

[6] = system: Tygress tomato plants; assay: Yields of tomato fruits, greenhouse (Examples 4-6)
Description: as §1, §2, §3, §4, §5

[7] = system: Patriot bell pepper plants; assay: Foliar nutrient concentration at 6 WAT, open-field bell pepper (Examples 7-10); conditions: 6 WAT; open field; product rate as Table 17
Description: as §6, §7, §8, §9, §10, §11

Substance: EDTA chelated manganese [BIOX-EDM]
- B concentration in tomato leaves ([1]; 2 weeks after Mn treatment): 22 ppm
- Ca concentration in tomato leaves ([1]; 2 weeks after Mn treatment): 0.6%
- Cu concentration in tomato leaves ([1]; 2 weeks after Mn treatment): 5 ppm
- Fe concentration in tomato leaves ([1]; 2 weeks after Mn treatment): 115 ppm
- K concentration in tomato leaves ([1]; 2 weeks after Mn treatment): 3.3%
- Mg concentration in tomato leaves ([1]; 2 weeks after Mn treatment): 0.3%
- N concentration in tomato leaves ([1]; 2 weeks after Mn treatment): 3.3%
- P concentration in tomato leaves ([1]; 2 weeks after Mn treatment): 0.5%
- Zn concentration in tomato leaves ([1]; 2 weeks after Mn treatment): 32 ppm
- Foliar Mn concentration ([1]; tomato leaves 2 weeks after Mn treatment): 78.5 a ppm
- Marketable yield, Tomato [2]: 14.6 b ton/acre
- Foliar Zn concentration of tomato plants, statement [3]: significant increase
- Foliar concentration of K of tomato plants compared to control, statement [3]: significant increase
- Foliar concentration of Mn of tomato plants, statement [3]: significant increase
- Foliar concentration of P of tomato plants compared to control, statement [3]: significant decrease
- Foliar B concentration of tomato plants ([3]; product rate as Table 17): 60 ppm
- Foliar Ca concentration of tomato plants ([3]; product rate as Table 17): 2.2%
- Foliar Cu concentration of tomato plants ([3]; product rate as Table 17): 409 ppm
- Foliar Fe concentration of tomato plants ([3]; product rate as Table 17): 100 ppm
- Foliar K concentration of tomato plants ([3]; product rate as Table 17): 6.2 a %
- Foliar Mg concentration of tomato plants ([3]; product rate as Table 17): 0.82%
- Foliar Mn concentration of tomato plants ([3]; product rate as Table 17): 348 b ppm
- Foliar N concentration of tomato plants ([3]; product rate as Table 17): 4.9%
- Foliar P concentration of tomato plants ([3]; product rate as Table 17): 0.22 ab %
- Foliar Zn concentration of tomato plants ([3]; product rate as Table 17): 333 a ppm
- Nutrient concentrations in tomato fruits, statement [4]: significant increases in micronutrient concentrations of Zn, Mn, Fe, and Cu; also recorded: highest Mn concentration in the resulting tomato fruit
- B concentration of tomato fruits ([4]; product rate as Table 17): 24 ppm
- Ca concentration of tomato fruits ([4]; product rate as Table 17): 0.2%
- Cu concentration of tomato fruits ([4]; product rate as Table 17): 27 a ppm
- Fe concentration of tomato fruits ([4]; product rate as Table 17): 110 a ppm
- K concentration of tomato fruits ([4]; product rate as Table 17): 8.6%
- Mg concentration of tomato fruits ([4]; product rate as Table 17): 0.39%
- Mn concentration of tomato fruits ([4]; product rate as Table 17): 60 a ppm
- N concentration of tomato fruits ([4]; product rate as Table 17): 4.3%
- P concentration of tomato fruits ([4]; product rate as Table 17): 0.63%
- Zn concentration of tomato fruits ([4]; product rate as Table 17): 939 a ppm
- Marketable yield, Bell Pepper [5]: 7.6 ton/acre
- Marketable tomato yield compared with non-treated control (in words) ([6]; BIOX-M at 1.23 lb/acre or more, BIOX-EDM at 2.0 lb/acre, Mn-sulfate at 1.0 lb/acre): significantly higher than the non-treated control
- Marketable yield ([6]; Mn 2.0 lb/acre, tomato fruits): 4.4 a lb/plant
- Foliar B concentration of bell pepper plants [7]: 64 ppm
- Foliar Ca concentration of bell pepper plants [7]: 4.4%
- Foliar Cu concentration of bell pepper plants [7]: 411 ppm
- Foliar Fe concentration of bell pepper plants [7]: 138 ppm
- Foliar K concentration of bell pepper plants [7]: 3.6%
- Foliar Mg concentration of bell pepper plants [7]: 0.52%
- Foliar Mn concentration of bell pepper plants [7]: 563 ppm
- Foliar N concentration of bell pepper plants [7]: 4.4%
- Foliar P concentration of bell pepper plants [7]: 0.28%
- Foliar Zn concentration of bell pepper plants [7]: 67 ppm
